Assay [1] concerns the target p38α/PRAK (Homo sapiens, UniProt Q16539). The assay can be described thus: p38α/PRAK cascade assay (phosphorylation of Hsp27 peptide, Caliper LabChip 3000). It counts as biochemical. The note with it: Hsp27 peptide 1 μM, MgATP 10 μM, 30 minutes, room temperature, two values given, read-out: p38/PRAK IC50. The method, then: (§1) P38 inhibitory potency and P38/MK2 substrate selectivity: The novel, MK2 substrate-selective inhibitory mechanism of compounds is evaluated in enzyme assays comparing inhibitor potency in blocking p38/MK2 versus p38/PRAK induced phosphorylation of an HSP-27 derived peptide substrate. The ability of compounds to inhibit activated phospho-p38α is evaluated using a p38α/MK2 and a p38α/PRAK cascade assay format. The kinase activity of p38α is determined by its ability to phosphorylate GST-MK2 or GST-PRAK. Activation of MK2 or PRAK by p38α is quantitated by measuring the phosphorylation of a fluorescently-labeled, MK2 specific peptide substrate, Hsp27 peptide (FITC-KKKALSRQLSVAA). The phosphorylation of the Hsp27 peptide is quantified using the Caliper LabChip 3000. Kinase reactions are carried out in a 384-well plate (Matrical, MP101-1-PP) in 20 mM HEPES pH 7.5, 10 mM MgCl2, 0.0005% Tween-20, 0.01% BSA, 1 mM DTT, and 2% DMSO. The inhibitor concentration is varied between 0.02-30,000 nM, while the Hsp27 peptide substrate and MgATP are held constant at 1 μM and 10 μM, respectively. Activated p38α is added to a final concentration of […] for reactions with nonphosphorylated 1 nM His6-MK2 in the cascade reaction. For the p38α/PRAK cascade, unactivated GST-PRAK is held constant at 1 nM while p38α is added in to a final concentration of […]. Kinase reactions are incubated at room temperature and quenched after 30 minutes by the addition of stop buffer (180 mM HEPES, 30 mM EDTA, and 0.2% Coating Reagent-3). Under these conditions, approximately 20% of the substrate Hsp27 peptide is phosphorylated. Reactions are initiated by the addition of activated p38α except for preincubation experiments, where reactions are initiated by the addition of Hsp27 peptide and MgATP. Preincubation of p38α with inhibitor or p38α with unactivated His6-MK2 or unactivated GST-PRAK and inhibitor are performed at 2× final assay concentrations at room temperature 240 minutes prior to adding ATP and Hsp27 peptide to initiate catalysis. The p38α compound inhibitory potency is quantitated from dose-response IC50 values or Ki values from p38α/MK2 cascade assays while the substrate selectivity is calculated as a ratio of p38α/PRAK:p38α/MK2 IC50 values. Species compounds of Formula I, described hereinabove, evaluated in this assay, are expected to provide a therapeutic benefit in the treatment of p38 kinase mediated diseases, such as autoimmune diseases and lymphoma.

Assay [2] deals with p38α/MK2 (Homo sapiens, UniProt Q16539). The assay can be described thus: p38α/MK2 cascade assay (phosphorylation of Hsp27 peptide, Caliper LabChip 3000). It counts as biochemical. To be noted: Hsp27 peptide 1 μM, MgATP 10 μM, 30 minutes, room temperature, two values given, read-out: p38/MK2 IC50. The method, then: as §1
Chain of p38α/MK2 (Q16539 whole entry): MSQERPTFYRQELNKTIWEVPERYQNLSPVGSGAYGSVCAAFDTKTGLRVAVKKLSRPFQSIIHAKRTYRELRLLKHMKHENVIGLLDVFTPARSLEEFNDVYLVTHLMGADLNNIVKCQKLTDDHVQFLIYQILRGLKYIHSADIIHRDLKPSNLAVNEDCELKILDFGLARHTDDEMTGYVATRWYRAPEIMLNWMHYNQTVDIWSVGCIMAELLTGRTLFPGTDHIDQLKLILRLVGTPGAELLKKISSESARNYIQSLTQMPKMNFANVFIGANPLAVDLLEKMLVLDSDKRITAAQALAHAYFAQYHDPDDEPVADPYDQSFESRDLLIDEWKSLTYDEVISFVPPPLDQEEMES
Chain of p38α/MK2 (P49137 whole entry partner): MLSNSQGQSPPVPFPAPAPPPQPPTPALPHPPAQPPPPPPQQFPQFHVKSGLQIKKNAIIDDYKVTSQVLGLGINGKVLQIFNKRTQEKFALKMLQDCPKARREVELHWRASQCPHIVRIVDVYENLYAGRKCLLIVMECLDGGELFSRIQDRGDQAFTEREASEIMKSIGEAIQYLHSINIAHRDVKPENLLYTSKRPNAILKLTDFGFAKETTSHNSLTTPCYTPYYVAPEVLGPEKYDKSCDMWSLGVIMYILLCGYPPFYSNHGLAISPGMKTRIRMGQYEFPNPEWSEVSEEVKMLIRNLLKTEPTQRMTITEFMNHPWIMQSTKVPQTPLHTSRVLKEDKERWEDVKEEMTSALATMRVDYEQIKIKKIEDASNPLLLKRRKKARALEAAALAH

Each structure is given as a SMILES string. “And” between values parts separate entries of the source, which are not always exact repeats. Identical values can stand only once. Some results are limits rather than exact numbers.

Chain of p38α/PRAK (Q16539 whole entry): as the sequence (Q16539 whole entry) above

For the molecule `Cc1nc(-c2cccc(N(C(N)=O)c3cc(-c4ccnc(C(C)(C)C)n4)ccc3C)n2)cs1` [Example 33, 1-(5-(2-(tert-butyl)pyrimidin-4-yl)-2-methylphenyl)-1-(6-(2-methylthiazol-4-yl)pyridin-2-yl)urea], the IC50 in assay [1] is above 50 µM; in assay [2], 9.5 µM and 12 µM.

For the molecule `Cc1ccc(-c2ccnc(C(C)(C)C)n2)cc1N(C(N)=O)c1cccc(-c2ccc(F)cc2F)n1` [Example 31, 1-(5-(2-(tert-butyl)pyrimidin-4-yl)-2-methylphenyl)-1-(6-(2,4-difluorophenyl)pyridin-2-yl)urea], the IC50 in assay [1] was above 50 µM; in assay [2] it was 1.27 µM and 1.53 µM.

`Cc1ccc(-c2ccnc(C(C)(C)O)n2)cc1N(C(N)=O)c1cccc(-c2ccc(F)cc2F)n1` [Example 5, 1-(6-(2,4-difluorophenyl)pyridin-2-yl)-1-(5-(2-(2-hydroxypropan-2-yl)pyrimidin-4-yl)-2-methylphenyl)urea]: the IC50 was 1.9 µM and 2.6 µM in assay [1]; 0.34 µM and 0.36 µM in assay [2].

Take `Cc1ccc(-c2ccnc(C(C)(C)C)n2)cc1N(C(N)=O)c1ccc(C(N)=O)c(-c2ccc(F)cc2F)n1` [Example 17, 6-(1-(5-(2-(tert-butyl)pyrimidin-4-yl)-2-methylphenyl)ureido)-2-(2,4-difluorophenyl)nicotinamide]: the IC50 in assay [1] is above 10 µM; in assay [2], 0.55 µM and 0.5 µM.

In the case of `COC(=O)c1ccc(N(C(N)=O)c2cc(-c3ccnc(C(C)(C)C)n3)ccc2C)nc1-c1ccc(F)cc1F` [Example 32, methyl 6-(1-(5-(2-(tert-butyl)pyrimidin-4-yl)-2-methylphenyl)ureido)-2-(2,4-difluorophenyl)nicotinate], the IC50 is above 10 µM in assay [1]; 0.838 µM and 0.955 µM in assay [2].

The values above are taken from US8563558B2, “Substituted pyridine urea compounds” (Confluence Life Sciences, Inc., priority 2010, dated 2013).
